System: intraocular pressure (IOP) in New Zealand White rabbits
Assay: Intraocular pressure in New Zealand White rabbits, topical dosing four times daily
Format: in vivo
Protocol: On Days 1-31, animals received daily topical doses of the appropriate test article into the right eye. Animals were dosed four times per day, with doses administered 2 hours apart. Doses were administered using a calibrated 50-μL pipette. The eyelids were held close for 10 seconds immediately following dosing. The time of each dose administration was recorded.
Intraocular pressure (“IOP”) was determined for both eyes of each animal on Days 3, 5, 10, 12, 16, 18, 22, 24, 26, 30, and 32. LOP was evaluated with a Medtronic Solan, Model 30 classic pneumatonometer. Proparacaine hydrochloride 0.5% (1 drop) was delivered to each eye prior to IOP measurement. IOP was measured on Monday, Wednesday, and Friday of each week. A two-point diurnal curve was established: IOP was recorded at 8 a.m. and 12 p.m. on Day 3, and at 8 a.m. and 2 p.m. on later days, with a ±1 hour range for each of these times. The time of the measurements was recorded.
Descriptive statistics were prepared for IOP data of each treatment group (left and right eyes separately) at each measurement interval. The statistics included the number of observations (“N”), mean, standard deviation (“STD”), and standard error (“SEM”). Statistical analyses were conducted on IOP results using Statistical Analysis Systems (SAS Institute, Inc., Cary, N.C., V8.0). Parameters were evaluated using analysis of variance/GLM Procedure followed by Tukey's Standardized Range Test (Tukey, 1985) for post hoc comparisons of group means. The level of significance was set at a probability of p<0.05 for all statistical procedures. Group IOP means were compared at each interval, with left and right eyes compared separately.
IOP data for the following six animals were excluded from group statistics: Group A, Nos. 3081, 3037, 3068, and 3011; Group C, No. 3034; and Group E, No. 3084.

Cc1ccc2c(NCC(O)(CC(C)(C)c3cc(F)cc4c3OCC4)C(F)(F)F)cccc2n1 (centres unmarked) [BOL-303242-X]
Intraocular Pressure, MEAN (treated right eyes, A.M. readings, Day 12, 10 mg/g (Group B)): 23.9 mmHg
Intraocular Pressure, MEAN (treated right eyes, A.M. readings, Day 16, 1 mg/g (Group D)): 22.1 mmHg
Intraocular Pressure, MEAN (treated right eyes, A.M. readings, Day 16, 5 mg/g (Group C)): 24.3 mmHg
Intraocular Pressure, MEAN (treated right eyes, A.M. readings, Day 16, 10 mg/g (Group B)): 23.4 mmHg
Intraocular Pressure, MEAN (treated right eyes, A.M. readings, Day 18, 1 mg/g (Group D)): 23.7 mmHg
Intraocular Pressure, MEAN (treated right eyes, A.M. readings, Day 18, 5 mg/g (Group C)): 23.9 mmHg
Intraocular Pressure, MEAN (treated right eyes, A.M. readings, Day 18, 10 mg/g (Group B)): 22.3 mmHg
Intraocular Pressure, MEAN (treated right eyes, A.M. readings, Day 22, 1 mg/g (Group D)): 23.2 mmHg
Intraocular Pressure, MEAN (treated right eyes, A.M. readings, Day 22, 5 mg/g (Group C)): 22.4 mmHg
Intraocular Pressure, MEAN (treated right eyes, A.M. readings, Day 22, 10 mg/g (Group B)): 22.4 mmHg
Intraocular Pressure, MEAN (treated right eyes, A.M. readings, Day 24, 1 mg/g (Group D)): 22.1 mmHg
Intraocular Pressure, MEAN (treated right eyes, A.M. readings, Day 24, 5 mg/g (Group C)): 23.8 mmHg
Intraocular Pressure, MEAN (treated right eyes, A.M. readings, Day 24, 10 mg/g (Group B)): 21.2 mmHg
Intraocular Pressure, MEAN (treated right eyes, A.M. readings, Day 26, 1 mg/g (Group D)): 23.1 mmHg
Intraocular Pressure, MEAN (treated right eyes, A.M. readings, Day 26, 5 mg/g (Group C)): 22.1 mmHg
Intraocular Pressure, MEAN (treated right eyes, A.M. readings, Day 26, 10 mg/g (Group B)): 21.8 mmHg
Intraocular Pressure, MEAN (treated right eyes, A.M. readings, Day 30, 1 mg/g (Group D)): 24.2 mmHg
Intraocular Pressure, MEAN (treated right eyes, A.M. readings, Day 30, 5 mg/g (Group C)): 22.9 mmHg
Intraocular Pressure, MEAN (treated right eyes, A.M. readings, Day 30, 10 mg/g (Group B)): 22.7 mmHg
Intraocular Pressure, MEAN (treated right eyes, A.M. readings, Day 32, 1 mg/g (Group D)): 24.9 mmHg
Intraocular Pressure, MEAN (treated right eyes, A.M. readings, Day 32, 5 mg/g (Group C)): 23.4 mmHg
Intraocular Pressure, MEAN (treated right eyes, A.M. readings, Day 32, 10 mg/g (Group B)): 23.9 mmHg
Intraocular Pressure, MEAN (treated right eyes, A.M. readings, Pre-Study, 1 mg/g (Group D)): 24.4 mmHg
Intraocular Pressure, MEAN (treated right eyes, A.M. readings, Pre-Study, 5 mg/g (Group C)): 24.8 mmHg
Intraocular Pressure, MEAN (treated right eyes, A.M. readings, Pre-Study, 10 mg/g (Group B)): 24.0 mmHg
Intraocular Pressure, MEAN (untreated left eyes, P.M. readings, Day 3, 1 mg/g (Group D)): 25.0 mmHg
Intraocular Pressure, MEAN (untreated left eyes, P.M. readings, Day 3, 5 mg/g (Group C)): 23.9 mmHg
Intraocular Pressure, MEAN (untreated left eyes, P.M. readings, Day 3, 10 mg/g (Group B)): 23.3 mmHg
Intraocular Pressure, MEAN (untreated left eyes, P.M. readings, Day 5, 1 mg/g (Group D)): 24.7 mmHg
Intraocular Pressure, MEAN (untreated left eyes, P.M. readings, Day 5, 5 mg/g (Group C)): 24.8 mmHg
Intraocular Pressure, MEAN (untreated left eyes, P.M. readings, Day 5, 10 mg/g (Group B)): 25.2 mmHg
Intraocular Pressure, MEAN (untreated left eyes, P.M. readings, Day 10, 1 mg/g (Group D)): 24.9 mmHg
Intraocular Pressure, MEAN (untreated left eyes, P.M. readings, Day 10, 5 mg/g (Group C)): 24.6 mmHg
Intraocular Pressure, MEAN (untreated left eyes, P.M. readings, Day 10, 10 mg/g (Group B)): 23.5 mmHg
Intraocular Pressure, MEAN (untreated left eyes, P.M. readings, Day 12, 1 mg/g (Group D)): 23.7 mmHg
Intraocular Pressure, MEAN (untreated left eyes, P.M. readings, Day 12, 5 mg/g (Group C)): 23.3 mmHg
Intraocular Pressure, MEAN (untreated left eyes, P.M. readings, Day 12, 10 mg/g (Group B)): 24.1 mmHg
Intraocular Pressure, MEAN (untreated left eyes, P.M. readings, Day 16, 1 mg/g (Group D)): 21.9 mmHg
Intraocular Pressure, MEAN (untreated left eyes, P.M. readings, Day 16, 5 mg/g (Group C)): 20.4 mmHg
Intraocular Pressure, MEAN (untreated left eyes, P.M. readings, Day 16, 10 mg/g (Group B)): 21.4 mmHg
Intraocular Pressure, MEAN (untreated left eyes, P.M. readings, Day 18, 1 mg/g (Group D)): 22.7 mmHg
Intraocular Pressure, MEAN (untreated left eyes, P.M. readings, Day 18, 5 mg/g (Group C)): 21.9 mmHg
Intraocular Pressure, MEAN (untreated left eyes, P.M. readings, Day 18, 10 mg/g (Group B)): 22.1 mmHg
Intraocular Pressure, MEAN (untreated left eyes, P.M. readings, Day 22, 1 mg/g (Group D)): 22.1 mmHg
Intraocular Pressure, MEAN (untreated left eyes, P.M. readings, Day 22, 5 mg/g (Group C)): 22.1 mmHg
Intraocular Pressure, MEAN (untreated left eyes, P.M. readings, Day 22, 10 mg/g (Group B)): 22.6 mmHg
Intraocular Pressure, MEAN (untreated left eyes, P.M. readings, Day 24, 1 mg/g (Group D)): 22.9 mmHg
Intraocular Pressure, MEAN (untreated left eyes, P.M. readings, Day 24, 5 mg/g (Group C)): 22.2 mmHg
Intraocular Pressure, MEAN (untreated left eyes, P.M. readings, Day 24, 10 mg/g (Group B)): 22.8 mmHg
Intraocular Pressure, MEAN (untreated left eyes, P.M. readings, Day 26, 1 mg/g (Group D)): 22.1 mmHg
Intraocular Pressure, MEAN (untreated left eyes, P.M. readings, Day 26, 5 mg/g (Group C)): 22.3 mmHg
Intraocular Pressure, MEAN (untreated left eyes, P.M. readings, Day 26, 10 mg/g (Group B)): 21.4 mmHg
Intraocular Pressure, MEAN (untreated left eyes, P.M. readings, Day 30, 10 mg/g (Group B)): 21.7 mmHg

— patent publication US20120065228A1, “COMPOSITIONS AND METHODS FOR TREATING, CONTROLLING, REDUCING, OR AMELIORATING OCULAR INFLAMMATORY WITH LOWER RISK OF INCREASED INTRAOCULAR PRESSURE” (priority 2007, published 2012)
